US20060154932A1, “Pharmaceutical compositions and method of treating parkinson's disease” (priority 2002, published 2006)

Assays:
Parkinson's disease [1] = assay: Unified Parkinson's Disease Rating Scale (UPDRS) Part III motor examination of a patient; type: in vivo, human; conditions: Patient 1
Method: Patent 1, a person, was administered Part III (motor examination) of the Unified Parkinson's Disease Rating Scale (hereinunder abbreviated as UPDRS) and diagnosed as having Parkinson=3 s disease (scoring a 20 in the test). After a period of evaluation of drug therapy options, the patient was prescribed pergolide, 0.25 mg tid and selegiline 5 mg po. After six (6) months on drug therapy, the patient was once again examined with the UPDRS motor subset and scored 16.5. After three (3) months on the drug, 25 mg of VIOXX, once a day was added to the treatment regime. After four (4) additional months, the patient was once again administered the UPDRS, this time scoring a 6.0. After six (6) months on the VIOXX tripartite therapy, the patient was again administered the UPDRS motor examination and scored 4.0. (see Fahn S, Elton R L, Members of the UPDRS Development Committee. Unified Parkinson's disease rating scale. In: Fahn S, Marsden C D, Calne D, Goldstein M, eds. Recent developments in Parkinson=3 s disease, Vol II. Florham Park, N.J.: Macmillan Healthcare Information, 1987:153-163, 293-304): […]

Parkinson's disease [2] = assay: Patient-reported tremor in a Parkinson's disease patient; type: in vivo, human; conditions: VIOXX 25 mg once a day added to Endo L-C 100-25 TID
Method: Patient 8 (person one), an adult, was diagnosed as having Parkinson's disease. After evaluation the patient was prescribed Endo L-C 100-25, TID. Approximately three years later, the patient began taking VIOXX (25 mg) once a day. After three weeks, patient noticed that severity of tremors had decreased and the frequency between the tremors had increased. In addition, night time tremors, those associated with sleeping, had dramatically subsided (i.e. by up to 90%). Overall, the patient reports that the tremors have subsided nearly 40%.

Parkinson's disease [3] = conditions: cited from earlier work

Question: With CS(=O)(=O)c1ccc(C2=C(c3ccccc3)C(=O)OC2)cc1 [VIOXX, rofecoxib] as the compound, how does the UPDRS score (Parkinson's disease [1]; 25 mg VIOXX once a day added to pergolide and selegiline, after four additional months) read?
Answer: Its UPDRS score is 6.0.

Question: And the “UPDRS motor examination score” value (Parkinson's disease [1]; after six months on the VIOXX tripartite therapy (VIOXX 25 mg once a day, pergolide, selegiline))?
Answer: Its value is 4.0.

Question: What about the severity of tremors (Parkinson's disease [2]; Patient 8 (person one), after three weeks) of the same compound?
Answer: Its severity of tremors is “decreased”.

Question: What about the “night time tremors (associated with sleeping) subsided” value (Parkinson's disease [2]; Patient 8) of the same compound?
Answer: The value was “up to 90%”.

Question: And the “tremors subsided overall (patient report)” value (Parkinson's disease [2]; Patient 8)?
Answer: The value was about 40%.

Question: And the “frequency between the tremors” value (Parkinson's disease [2]; Patient 8, after three weeks)?
Answer: Its value is “increased”.

Question: Which “patients beginning to experience fluctuations in their response (wearing off or on-off effect)” value (Parkinson's disease [3]; after 2 to 5 yr of treatment) does the source give for N[C@@H](Cc1ccc(O)c(O)c1)C(=O)O [levodopa] here?
Answer: The value was over 50%.

Question: For C#CCN(C)[C@H](C)Cc1ccccc1 [Selegiline, selegiline], which “delay of the initiation of levodopa” value (Parkinson's disease [3]; used as initial treatment) is on record?
Answer: The value was “about 1 yr”.

Question: For NC12CC3CC(CC(C3)C1)C2 [Amantadine, amantadine], which “patients for whom useful in treating early, mild parkinsonism” value (Parkinson's disease [3]; 100 to 300 mg/day po) is on record?
Answer: The value was 50%.
